Measurements as given in patent US8211929B2, “Pyrimidine derivatives as kinase modulators and method of use” (Exelixis, Inc., priority 2004, dated 2012).
Read-outs that look alike come from different tables or passages of the source.

Assays:
[1] = biological target: T1, (Homo sapiens, UniProt P08069); test: IGF1R kinase assay (LCCA), IGF 0P; assay type: biochemical
T1 construct: human IGF1R kinase domain residues M954-C1367; made in house; host or cells: baculovirus expression (insect cells)
Method in brief: (§1)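 Read-out is percent ATP remaining, detected by luciferase-luciferin luminescence after a 2 h ambient reaction. Reaction contained 4 nM IGF1R kinase domain (residues M954-C1367, baculovirus-made), 3 μM ATP (near KM), 4 μM poly EY, pH 7.5 with Mg2+/Mn2+. Ten inhibitor concentrations; IC50 by Hill-type curve fit.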

IGF 3P = biological target: T2, IGF 3P (Homo sapiens, UniProt P08069); test: IGF1R kinase assay (LCCA), IGF 3P; assay type: biochemical
T2 construct: human IGF1R kinase domain residues M954-C1367; made in house; host or cells: baculovirus expression (insect cells)
Method in brief: as §1

T1 sequence (P08069 954-1367): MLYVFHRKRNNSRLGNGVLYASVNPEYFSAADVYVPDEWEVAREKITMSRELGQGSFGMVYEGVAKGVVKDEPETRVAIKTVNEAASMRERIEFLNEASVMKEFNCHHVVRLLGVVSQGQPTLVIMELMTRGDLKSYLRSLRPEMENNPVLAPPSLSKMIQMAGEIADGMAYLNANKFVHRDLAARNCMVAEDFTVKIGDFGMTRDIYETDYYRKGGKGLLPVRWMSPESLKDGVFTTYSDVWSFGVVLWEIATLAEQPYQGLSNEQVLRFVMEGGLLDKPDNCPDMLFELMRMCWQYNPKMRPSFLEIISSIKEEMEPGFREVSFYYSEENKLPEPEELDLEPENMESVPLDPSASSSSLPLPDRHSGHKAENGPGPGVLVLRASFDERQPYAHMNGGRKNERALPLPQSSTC
T2 sequence (P08069 954-1367): as above

Row | Compound | IC50 ([1]; IGF1R kinase LCCA assay) | IC50 (IGF 3P; IGF1R kinase LCCA assay) | IC50 [1] | IC50 (IGF 3P)
1 | Cc1cc(Nc2cc(C(C)C)[nH]n2)nc(NCc2cc(-c3cccc(Cl)c3)no2)n1 [Example 535] | 50 to 500 nM | 50 to 500 nM |  | 
2 | CC(C)c1cc(Nc2cc(OCCN3CCCCC3)nc(NCc3cc(-c4ccccc4)no3)n2)[nH]n1 [Example 589, N^4-[3-(1-methylethyl)-1H-pyrazol-5-yl]-N^2-[(3-phenylisoxazol-5-yl)methyl]-6-[(2-piperidin-1-ylethyl)oxy]pyrimidine-2,4-diamine] |  |  | 50 to 500 nM | < 50 nM
3 | O=C(Nc1ccc(Cl)c(Nc2ncc(Br)c(Nc3cc(C4CC4)[nH]n3)n2)c1)c1ccccc1 [Example 169] | 500 to 5000 nM | 500 to 5000 nM |  | 
4 | Brc1cnc(Nc2ccc3[nH]ccc3c2)nc1Nc1cc(C2CC2)n[nH]1 [Example 132] | 50 to 500 nM | 50 to 500 nM |  | 
5 | Brc1ccc(Nc2ncc(Br)c(Nc3cc(C4CC4)n[nH]3)n2)c(Br)c1 [Example 163] | 500 to 5000 nM | 500 to 5000 nM |  | 
6 | Cc1cc(CNc2nc(Nc3cc(C4CC4)[nH]n3)cc(NC3CC4CCC(C3)N4C)n2)on1 (centres unmarked) [Example 630, N^4-(5-cyclopropyl-1H-pyrazol-3-yl)-N^6-(8-methyl-8-azabicyclo[3.2.1]oct-3-yl)-N^2-[(3-methylisoxazol-5-yl)methyl]pyrimidine-2,4,6-triamine] |  |  | 50 to 500 nM | < 50 nM
7 | Fc1ccc(-c2cc(CNc3nc(Nc4cc(C5CC5)n[nH]4)cc(OCCN4CCOCC4)n3)on2)cc1 [Example 606, N^4-(3-cyclopropyl-1H-pyrazol-5-yl)-N^2-{[3-(4-fluorophenyl)isoxazol-5-yl]methyl}-6-[(2-morpholin-4-ylethyl)oxy]pyrimidine-2,4-diamine] |  |  | 50 to 500 nM | < 50 nM
8 | Cc1cc(Nc2cc(N3CCN(C)CC3)nc(NCc3cc(C)no3)n2)[nH]n1 [Example 626, N^2-[(3-methylisoxazol-5-yl)methyl]-6-(4-methylpiperazin-1-yl)-N^4-(3-methyl-1H-pyrazol-5-yl)pyrimidine-2,4-diamine] |  |  | 500 to 5000 nM | 50 to 500 nM
9 | O=C(NCCN1CCCCC1)c1cc(Nc2cc(C3CC3)[nH]n2)nc(NCc2cc(-c3ccccc3)no2)n1 [Example 531] | 50 to 500 nM | < 50 nM |  | 
10 | Cc1cc(Nc2cc(C3CC3)n[nH]2)nc(Nc2ccc(CCN3CCOCC3)cc2)n1 [Example 556] | 500 to 5000 nM | 500 to 5000 nM |  | 
11 | O=C(Nc1ncc(Br)c(Nc2cc(C3CC3)[nH]n2)n1)c1ccccc1Cl [Example 279] | > 5000 nM | > 5000 nM |  | 
12 | Cc1cc(Nc2cc(C3CC3)[nH]n2)nc(NCc2cc(C(=O)N3CCN(C)CC3)no2)n1 [Example 555] | 500 to 5000 nM | 500 to 5000 nM |  | 
13 | CN(C)CCOc1cc(Nc2cc(C3CC3)[nH]n2)nc(NCc2cc(-c3ccccn3)no2)n1 [Example 641, N^4-(5-cyclopropyl-1H-pyrazol-3-yl)-6-{[2-(dimethylamino)ethyl]oxy}-N^2-[(3-pyridin-2-ylisoxazol-5-yl)methyl]pyrimidine-2,4-diamine] |  |  | 50 to 500 nM | < 50 nM
14 | O=C(c1cc(Nc2cc(C3CC3)[nH]n2)nc(NCc2cc(-c3ccccc3)no2)n1)N1CCOCC1 [Example 512] | 50 to 500 nM | 50 to 500 nM |  | 
15 | Clc1ccc(-c2ncc(CNc3ncc(Br)c(Nc4cc(C5CC5)[nH]n4)n3)s2)cc1 [Example 289] | > 5000 nM | > 5000 nM |  | 
16 | Cc1ncc(CNc2ncc(Br)c(Nc3cc(C4CC4)[nH]n3)n2)s1 [Example 135] | 500 to 5000 nM | 50 to 500 nM |  | 
17 | Brc1cnc(NCCC(c2ccccc2)c2ccccc2)nc1Nc1cc(C2CC2)[nH]n1 [Example 328] | > 5000 nM | > 5000 nM |  | 
18 | CC(C)c1cc(Nc2cc(N3CCN(C)CC3)nc(NCc3cc(-c4ccc(F)cc4)no3)n2)[nH]n1 [Example 608, N^2-{[3-(4-fluorophenyl)isoxazol-5-yl]methyl}-N^4-[3-(1-methylethyl)-1H-pyrazol-5-yl]-6-(4-methylpiperazin-1-yl)pyrimidine-2,4-diamine] |  |  | 50 to 500 nM | < 50 nM
19 | Brc1cnc(NCC(c2ccccc2)c2ccccc2)nc1Nc1cc(C2CC2)[nH]n1 [Example 329] | > 5000 nM | > 5000 nM |  | 
20 | Cc1cnc(Nc2ccc(N(C)C)cc2)nc1Nc1cc(C2CC2)n[nH]1 [Example 175] | 500 to 5000 nM | 500 to 5000 nM |  | 
21 | CCN(CC)CCNc1cc(Nc2cc(C3CC3)[nH]n2)nc(NCc2cc(-c3ccccc3)no2)n1 [Example 45] | < 50 nM | < 50 nM |  | 
22 | Cc1cc(CNc2nc(Nc3cc(C4CC4)[nH]n3)cc(OCCN3CCCC3)n2)on1 [Example 647, N^4-(5-cyclopropyl-1H-pyrazol-3-yl)-N^2[(3-methylisoxazol-5-yl)methyl]-6-[(2-pyrrolidin-1-ylethyl)oxy]pyrimidine-2,4-diamine] |  |  | 50 to 500 nM | < 50 nM
23 | CCN(CC)CCNC(=O)c1ccc2cc(Nc3nc(C)cc(Nc4cc(C5CC5)n[nH]4)n3)ccc2c1 [Example 59] | 50 to 500 nM | < 50 nM |  | 
24 | Cc1cc(Nc2cc(N3CCOCC3)nc(NCc3cc(-c4ccccc4)no3)n2)[nH]n1 [Example 617, N^4-(3-methyl-1H-pyrazol-5-yl)-6-morpholin-4-yl-N^2-[(3-phenylisoxazol-5-yl)methyl]pyrimidine-2,4-diamine] |  |  | 50 to 500 nM | < 50 nM
25 | COc1cc(CNc2ncc(Br)c(Nc3cc(C4CC4)[nH]n3)n2)cc(OC)c1 [Example 187] | 500 to 5000 nM | 500 to 5000 nM |  | 
